Data as given in publication PMC3395807 (Journal of Medicinal Chemistry, 2012).
“Also recorded” adds a separate entry of the source.

Assays:
DENV [1] = assay: DENV in-cell western assay in Huh7.5 cells; format: cell-based, dengue virus; conditions: DENV infected Huh7.5 cells, side-by-side comparison, Figure 5A
mouse plasma protein = assay: Mouse plasma protein binding
rat plasma protein = assay: Rat plasma protein binding
human plasma protein = assay: Human plasma protein binding
[2] = test system: human CYP450s (1A2, 2C9, 2C19, 2D6, and 3A4); assay: Inhibition of five major human CYP450s; conditions: 10 μM
DENV [3] = assay: DENV virus yield reduction assay in BHK cells; format: cell-based, dengue virus (serotype 2, New Guniea C strain); conditions: 0.8 to 20 μM, Figure 5B
DENV [4] = conditions: DENV infected AG129 mice; cited from earlier work
[5] = MTT cytotoxicity assay in BHK cells; conditions: hamster

Mouse Plasma Protein Binding (mouse plasma protein)	Rat Plasma Protein Binding (rat plasma protein)	Human Plasma Protein Binding (human plasma protein)	inhibition on any of the five major drug metabolizing human CYP450s [2]	SMILES	antiviral activity in in-cell western assay (DENV [1])	reduction of DENV titers (DENV [3])	in vivo antiviral efficacy (viremia) (DENV [4])	CC50 [5]
79 % bound	71 % bound	78 % bound	no inhibition	OC[C@@H]1[C@@H](O)[C@H](O)[C@@H](O)CN1CCCCCCOc1cccc(F)c1 [Compound 3j, (2R,3R,4R,5S)-1-(6-(3-Fluorophenoxy)hexyl)-2-(hydroxymethyl)piperidine-3,4,5-triol]	much improved antiviral activity compared to compound 7			
	57 % bound	68 % bound	no inhibition	CCCOc1cccc(CCCN2C[C@H](O)[C@@H](O)[C@H](O)[C@H]2CO)c1 [Compound 4b, (2R,3R,4R,5S)-2-(Hydroxymethyl)-1-(3-(3-propoxyphenyl)propyl)piperidine-3,4,5-triol]	much improved antiviral activity compared to compound 7			
77 % bound	68 % bound	74 % bound		OC[C@@H]1[C@@H](O)[C@H](O)[C@@H](O)CN1CCCCCCOc1cc(F)ccc1F [Compound 3l, (2R,3R,4R,5S)-1-(6-(2,5-Difluorophenoxy)hexyl)-2-(hydroxymethyl)piperidine-3,4,5-triol]	much improved antiviral activity compared to compound 7; also recorded: the most potent one	being the most potent		
	77 % bound	91 % bound		CCCC(CCC)OCCCCCCN1C[C@H](O)[C@@H](O)[C@H](O)[C@H]1CO [Compound 1c]				
	79 % bound	80 % bound		Cc1cccc(OCCCCCCN2C[C@H](O)[C@@H](O)[C@H](O)[C@H]2CO)c1 [Compound 3c]				
	49 % bound	52 % bound	no inhibition	OC[C@@H]1[C@@H](O)[C@H](O)[C@@H](O)CN1CCCCCCOCc1ccccc1 [Compound 3v, (2R,3R,4R,5S)-1-(6-(Benzyloxy)hexyl)-2-(hydroxymethyl)piperidine-3,4,5-triol]	much improved antiviral activity compared to compound 7			
	30 % bound	33 % bound		CCC(O)(CC)CCCCCCN1C[C@H](O)[C@@H](O)[C@H](O)[C@H]1CO [Compound 7, (2R,3R,4R,5S)-1-(7-Ethyl-7-hydroxynonyl)-2-(hydroxymethyl)piperidine-3,4,5-triol]			reducing viremia	
	70 % bound	65 % bound	no inhibition	COc1ccccc1OCCCCCCN1C[C@H](O)[C@@H](O)[C@H](O)[C@H]1CO [Compound 3s]				
	90 % bound	93 % bound		OC[C@@H]1[C@@H](O)[C@H](O)[C@@H](O)CN1CCCCCCOc1cccc(C(F)(F)F)c1 [Compound 3p]				
				OC[C@@H]1[C@@H](O)[C@H](O)[C@@H](O)CN1CC/C=C\CCOc1cc(F)ccc1F [Compound 5c, (2R,3R,4R,5S)-1-((Z)-6-(2,5-Difluorophenoxy)hex-3-en-1-yl)-2-(hydroxymethyl)piperidine-3,4,5-triol]				> 500 µM
	65 % bound	71 % bound		OC[C@@H]1[C@@H](O)[C@H](O)[C@@H](O)CN1CCCCCCOC1CCCCCC1 [Compound 2l, (2R,3R,4R,5S)-1-(6-(Cycloheptyloxy)hexyl)-2-(hydroxymethyl)piperidine-3,4,5-triol]	much improved antiviral activity compared to compound 7			
